From the Bradley open melting point set (2014)
“And” between values parts separate entries of the source, which are not always exact repeats. Identical values can stand only once.

| SMILES | melting point |
| --- | --- |
| OC[C@@H](O)[C@@H](O)[C@H](O)[C@@H](O)CO [sorbitol] | 111 °C |
| S=C=Nc1ccc(Cl)c(Cl)c1Cl [2,3,4-trichlorophenyl isothiocyanate] | 70 °C |
| CCCOC(=O)c1ccc(O)cc1 [N-propyl 4-hydroxybenzoate] | 97 °C |
| O=C(O)c1ccccc1Cl [2-Chlorobenzoic acid] | 142 °C |
| O=[N+]([O-])c1ccc(C2OCCO2)cc1 [4-nitrobenzaldehyde ethylene glycol acetal] | 86 °C |
| Nc1ccc(Cl)cc1N [4-chloro-o-phenylenediamine] | 72 °C |
| N#C/C(=C\c1ccc(Cl)cc1)c1nc(-c2cccc3ccccc23)cs1 | 131 °C |
| Oc1c(Br)c(Br)c(Br)c(Br)c1Br [Pentabromophenol] | 230 °C |
| [2H]c1c([2H])c2c([2H])c([2H])c3c([2H])c([2H])c([2H])c4c([2H])c([2H])c(c1[2H])c2c34 [(~2~H_10_)Pyrene] | 156 °C |
| CCOC(=O)C1=C(C)CC(C)=N1 [ethyl 3,5-dimethylpyrrole-2-carboxylate] | 126 °C |
| Cc1cccc([N+](=O)[O-])c1C [3-nitro-o-xylene] | 14 °C |
| CCCCCCN [1-hexylamine] | -19 °C |
| CCCCCCC(=O)OCC [ethyl_heptanoate] | -66 °C |
| CCCC(=O)O [butyric acid] | -5.7 °C |
| OCc1cccc(O)c1 [3-hydroxybenzyl_alcohol] | 72 °C |
| CC(C)(C)c1ccccc1 [tert-butylbenzene] | -58 °C |
| CC1(C)c2ccccc2Oc2ccccc21 [9,9-dimethylxanthene] | 42 °C |
| O=[N+]([O-])c1ccccc1I [1-iodo-2-nitrobenzene] | 50 °C |
| Cc1ccccc1-c1ccccc1 [2-methylbiphenyl] | 0 °C |
| N#Cc1ccncc1 [4-cyanopyridine] | 78 °C |
| OC[C@H]1O[C@@H](Oc2ccccc2)[C@H](O)[C@@H](O)[C@H]1O [phenyl beta-D-galactopyranoside] | 154 °C |
| CCCCCI [1-iodopentane] | -86 °C |
| COc1ccc(C=CC(=O)c2ccc(O)cc2)cc1 [2-Propen-1-one, 1-(4-hydroxyphenyl)-3-(4-methoxyphenyl)-] | 188 °C |
| C/C=C/C(=O)N(CCCCCCC)C(C(=O)NC(C)(C)C)c1cc2ccccc2c2ccccc12 (configuration not stated) [Ugi product 148B] | 180 °C |
| O=[N+]([O-])c1ccc2[nH]ccc2c1 [5-nitroindole] | 141 °C |

| SMILES | melting point |
| --- | --- |
| CC(=O)Oc1ccc(OC(C)=O)cc1 [hydroquinone_diacetate] | 125 °C |
| COc1cc(C#N)cc(OC)c1OC [3,4,5-trimethoxybenzonitrile] | 94 °C |
| C#C[C@]1(O)CC[C@H]2[C@@H]3CCC4=CC(=O)CC[C@@H]4[C@H]3CC[C@@]21CC [Norgestrel] | 206 °C |
| Cn1cc[nH]c1=S [methimazole] | 146 °C (4×) and 147 °C |
| c1ccc([Si]2(c3ccccc3)O[Si](c3ccccc3)(c3ccccc3)O[Si](c3ccccc3)(c3ccccc3)O2)cc1 [hexaphenylcyclotrisiloxane] | 180 °C |
| O=C(O)/C=C/c1ccc(F)cc1 [4-fluorocinnamic acid] | 209 °C |
| COC(=O)c1cc(Cl)ccc1N [methyl 2-amino-5-chlorobenzoate] | 69 °C |
| CC(=O)Br [acetyl bromide] | -96 °C |
| O=[N+]([O-])c1ccc(N/N=C/C2=C(/C=C/c3ccccc3)CCCC2)c([N+](=O)[O-])c1 | 163 °C |
| Nc1nc2ccc([N+](=O)[O-])cc2s1 [2-Amino-6-nitrobenzothiazole] | 248 °C |
| O=C(Oc1ccc2ccccc2c1)c1ccccc1 [2-naphthyl benzoate] | 107 °C |
| O=[N+]([O-])c1cc(C(F)(F)F)cc([N+](=O)[O-])c1Cl [2-Chloro-1,3-dinitro-5-(trifluoromethyl)benzene] | 57 °C |
| Clc1cccc2cc3ccccc3cc12 [1-chloroanthracene] | 77 °C |
| OC[C@@H](O)[C@H](O)[C@H](O)[C@@H](O)CO [dulcitol] | 189 °C |
| CCC(C(=O)NC(=O)NC(C)=O)c1ccccc1 (configuration not stated) [acetylpheneturide] | 100 °C |
| O=Cc1cc(F)c(F)c(F)c1 [3,4,5-trifluorobenzaldehyde] | 25 °C |
| N#CCc1ccc(N)cc1 [4-aminobenzyl_cyanide] | 45 °C |
| COc1ccc2c(c1)CC1(CCC(O)(c3ccc(C(C)(C)C)cc3)CC1)C2=O (configuration not stated) | 166 °C |
| C=CCc1ccccc1 [allylbenzene] | -50 °C |
| c1ccc2c(c1)[nH]c1ccccc12 [Carbazole] | 247 °C |
| Clc1cc(Cl)cc(Cl)c1 [1,3,5-Trichlorobenzene] | 64 °C |
| CCCCN(CCCC)CCCC [N,N-Dibutylbutan-1-amine] | -70 °C |
| CCOC=O [ethyl_formate] | -80 °C |
| C=CCC [1-butene] | -185 °C |
| Cc1ccc(C(=O)c2ccccc2)cc1 [(4-Methylphenyl)(phenyl)methanone] | 57 °C |

| SMILES | melting point |
| --- | --- |
| Br/C(C)=CC [2-bromo-cis-2-butene] | -111 °C |
| OB(O)c1cc(F)ccc1OCc1ccccc1 [2-benzyloxy-5-fluorobenzeneboronic acid] | 119 °C |
| CSCC[C@H](NC(=O)OC(C)(C)C)C(=O)O [N-boc-L-methionine] | 50 °C |
| CC1=C(C(=O)O)N2C(=O)[C@@H](NC(=O)[C@H](N)C3=CCC=CC3)[C@H]2SC1 [Cefradine] | 140 °C |
| CS(=O)c1ccc(B(O)O)cc1 (configuration not stated) [4-(methylsulfinyl)benzeneboronic acid] | 170 °C |
| O=C(Oc1ccccc1)c1ccccc1 [phenyl benzoate] | 69 °C |
| O=C1OC(c2ccccc2)=N/C1=C/c1ccc(-c2ccccc2Br)o1 | 160 °C |
| COC(=O)c1ccc(O)cc1 [methyl p-hydroxybenzoate] | 131 °C |
| Cc1cc(C(=O)NCCc2ccc(S(=O)(=O)NC(=O)NN3CCCCCC3)cc2)no1 [glisoxepid] | 189 °C |
| CCOC(=O)c1cc(C)n(-c2ccc(F)cc2)c1C [OSM-S-03] | 64.5 °C |
| O=C(Cl)c1ccccc1 [benzoyl chloride] | -1 °C |
| CCCC(C)C1(CC)C(=O)NC(=O)NC1=O (configuration not stated) [pentobarbital] | 130 °C |
| OCc1ccc(CO)cc1 [1,4-benzenedimethanol] | 119 °C |
| CC(C)CCC[C@@H](C)[C@H]1CC[C@H]2[C@@H]3CC=C4C[C@@H](O)CC[C@]4(C)[C@H]3CC[C@]12C [Cholesterol] | 148 °C |
| Cc1ccc(C(=O)c2ccccc2)cc1 [4-methylbenzophenone] | 55 °C |
| Oc1ccc(F)cc1 [4-Fluorophenol] | 45.5 °C |
| CC(C)CCC[C@@H](C)[C@H]1CC[C@H]2[C@@H]3CC=C4C[C@@H](O)CC[C@]4(C)[C@H]3CC[C@]12C [(3beta)-Cholest-5-en-3-ol] | 149 °C |
| COc1ccc2cc([N+](=O)[O-])ccc2c1C(=O)O [2-methoxy-6-nitronaphthalene-1-carboxylic acid] | 187 °C |
| CCC(C)OC(C)=O (configuration not stated) [sec-butyl acetate] | -99 °C |
| Clc1cc(Cl)c(-c2ccc(Cl)c(Cl)c2Cl)cc1Cl [PCB-138] | 79 °C |
| CCCCCCCCCCCc1ccccc1 [Undecylbenzene] | -5 °C |
| O=c1[nH]c2ccccc2o1 [2-benzoxazolinone] | 140 °C |
| O=C1CCN(C(=O)c2ccccc2)CC1 [1-benzoyl-4-piperidone] | 55 °C |
| OB(O)c1ccccc1OCc1ccccc1 [2-benzyloxybenzeneboronic acid] | 98 °C |
| CC12CCC3C(CCC4CC(CC(=O)O)=CCC43C)C1CCC2=O (configuration not stated) [(17-oxoandrost-2-en-3-yl)acetic acid] | 177 °C |

| SMILES | melting point |
| --- | --- |
| O=C(O)CCCCCCCCCCCCCCCCCCC(=O)O [1,18-octadecanedicarboxylic acid] | 127 °C |
| C[C@H](NC(=O)OCc1ccccc1)C(=O)O [N-benzyloxycarbonyl-l-alanine] | 85 °C |
| CC(=O)c1ccc2c(c1)CCCC2 [6-acetyl-1,2,3,4-tetrahydronaphthalene] | -21 °C |
| COc1ccc(OC)c(B(O)O)c1 [2,5-dimethoxybenzeneboronic acid] | 93 °C |
| OCCc1ccc(O)cc1 [2-(4-hydroxyphenyl)ethanol] | 91 °C |
| COCC(C)O (configuration not stated) [1-Methoxypropan-2-ol] | -97 °C |
| COC(=O)c1cc(OC)c(O)c(OC)c1 [methyl 3,5-dimethoxy-4-hydroxybenzoate] | 106 °C |
| Ic1ccccc1 [iodobenzene] | -31 °C |
| NC(=O)C(F)(F)F [2,2,2-trifluoroacetamide] | 73 °C |
| Cc1ccnc(NS(=O)(=O)c2ccc(N)cc2)n1 [sulfamerazine] | 235 °C |
| CC(C)(C)OC(=O)N1CCC[C@H](O)C1 [(S)-1-boc-3-hydroxypiperidine] | 37 °C |
| Cc1cc(=O)n(-c2ccccc2)n1C [antipyrine] | 113 °C |
| COC(=O)n1nc(C)cc1C [methyl 3,5-dimethyl-1H-pyrazole-1-carboxylate] | 52 °C |
| Oc1ccc(F)cc1 [4-fluorophenol] | 46.5 °C |
| Cc1cc(C(=O)NNCc2ccccc2)no1 [isocarboxazid] | 106 °C |
| C#CCCC(C)C [5-methyl-1-hexyne] | -124 °C |
| O=C(CCCN1CCC(O)(c2ccc(Cl)cc2)CC1)c1ccc(F)cc1 [Haloperidol] | 148 °C |
| O=[N+]([O-])c1ccccc1CO [2-nitrobenzyl alcohol] | 72 °C |
| O=C(c1ccccc1)c1ccc(-c2ccccc2)cc1 [4-benzoylbiphenyl] | 101 °C |
| O=[N+]([O-])c1ccccc1C#Cc1ccccn1 [2-[(2-nitrophenyl)ethynyl]pyridine] | 55 °C |
| COc1ccc2c(c1)CC2O (configuration not stated) [3-methoxybicyclo[4.2.0]octa-1,3,5-trien-7-ol] | 38 °C |
| O=C(O)c1ccc([N+](=O)[O-])cc1 [4-Nitrobenzoic acid] | 240 °C |
